{"source": "paper PMC2637359", "about": "(Journal of cardiovascular pharmacology, 2008)", "key": {"[1]": {"experiment": "Plasma cholesterol levels in ApoE -/- mice", "assay_type": "in vivo, mouse", "details": "AEPU-treated ApoE -/- mice"}, "[2]": {"experiment": "AEPU metabolism in rat liver S9 fraction", "assay_type": "in vitro ADME"}, "[3]": {"target": "T1, purified murine sEH recombinant enzyme (Mus musculus, UniProt P34914)", "T1 sequence (P34914 1-554)": "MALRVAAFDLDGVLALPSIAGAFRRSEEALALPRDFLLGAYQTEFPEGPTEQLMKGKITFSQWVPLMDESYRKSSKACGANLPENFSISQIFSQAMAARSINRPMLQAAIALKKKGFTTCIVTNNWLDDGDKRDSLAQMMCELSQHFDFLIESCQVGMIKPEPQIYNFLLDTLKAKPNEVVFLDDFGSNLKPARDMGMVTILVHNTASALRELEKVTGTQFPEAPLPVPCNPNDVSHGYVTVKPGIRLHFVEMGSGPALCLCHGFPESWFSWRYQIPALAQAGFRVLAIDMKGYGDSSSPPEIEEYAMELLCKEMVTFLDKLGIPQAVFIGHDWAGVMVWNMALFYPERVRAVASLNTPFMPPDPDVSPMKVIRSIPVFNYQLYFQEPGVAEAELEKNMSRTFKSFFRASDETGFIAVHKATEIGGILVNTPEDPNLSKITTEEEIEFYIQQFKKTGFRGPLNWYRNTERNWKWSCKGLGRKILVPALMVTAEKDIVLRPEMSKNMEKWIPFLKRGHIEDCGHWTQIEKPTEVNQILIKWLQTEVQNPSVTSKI", "experiment": "sEH activity fluorescent assay", "assay_type": "biochemical"}, "in vivo": {"experiment": "in vivo", "details": "ApoE -/-, mouse, plasma, oral, 90 µg/ml in drinking water"}, "[4]": {"experiment": "Single oral dose pharmacokinetic study in mice", "assay_type": "in vivo, mouse", "details": "AEPU by oral gavage 10 mg/kg, over 24 hours"}}, "data": [{"smiles": "CCOCCOCCOCCCCCNC(=O)NC12CC3CC(CC(C3)C1)C2", "note": "[AEPU, 1-adamantan-3-(5-(2-(2-ethylethoxy)ethoxy)pentyl)urea]", "values": [{"measurement": "Plasma cholesterol level", "setting": "[1]; control 2.5±0.6 mM", "result": "2.5 ± 0.9", "unit": "mM"}, {"measurement": "Plasma cholesterol level", "setting": "[1]; control 96.2±23.1 mg/dl", "result": "96.2 ± 34.6", "unit": "mg/dL"}, {"measurement": "Metabolism in the absence of NADPH", "setting": "[2]; rat S9 liver preparation without NADPH", "result": "no metabolism"}, {"measurement": "AEPU remaining in the mixture", "setting": "[2]; rat liver S9 2.5 mg/mL, NADPH generating system, AEPU 10 µM, 60 min", "result": "less than 10%"}]}, {"smiles": "O=C(NCCCCCOCCOCCOCCO)NC12CC3CC(CC(C3)C1)C2", "note": "[Compound 975, 1-adamantan-1-yl-3-(5-{2-[2-(2-hydroxy-ethoxy)-ethoxy]-ethoxy}-pentyl)-urea]", "values": [{"measurement": "IC50", "setting": "[3]", "result": "4.7 ± 0.7", "unit": "nM"}]}, {"smiles": "CCOCCOCCOCCCCCNC(=O)NC12CC3CC(CC(O)(C3)C1)C2", "note": "[Compound 1010, 1-{5-[2-(2-ethoxyethoxy)-ethoxy]-pentyl}-3-(3-hydroxy-adamantan-1-yl)-urea]", "values": [{"measurement": "IC50", "setting": "[3]", "result": "78 ± 19", "unit": "nM"}, {"measurement": "fold less potent on the enzyme than AEPU", "setting": "[3]; murine sEH", "result": 28, "unit": "fold"}, {"measurement": "concentration at 8 weeks", "setting": "in vivo", "result": 565, "unit": "nM"}, {"measurement": "times more abundant in the plasma than AEPU", "setting": "[4]", "result": "roughly 5,000 times"}]}]}
